Measurements taken from US12077503B2, “Substituted cyclic amides and their use as herbicides” (FMC CORPORATION, priority 2015, dated 2024).

What was measured:
Type in all cases: in vivo
[1] = tested on: corn (Zea mays); assay: Test A postemergence; settings: Zea mays, post-emergence, 240 h
In short: (§1)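 Preemergence soil spray on seeded pots or post-emergence spray on 1–2 leaf plants, in loam–sand blend. Greenhouse ~10 d. Visual rating 0–100 against untreated plants.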

[2] = tested on: wheat (Triticum aestivum); assay: Test A postemergence; settings: Triticum aestivum, post-emergence, 240 h
In short: as §1

[3] = tested on: pigweed (Amaranthus retroflexus); assay: Test A postemergence; settings: Amaranthus retroflexus, post-emergence, 240 h
In short: as §1

[4] = tested on: Kochia (Kochia scoparia); assay: Test A postemergence; settings: Bassia scoparia, post-emergence, 240 h
In short: as §1

[5] = tested on: Galium (catchweed bedstraw, Galium aparine); assay: Test A postemergence; settings: Galium, post-emergence, 240 h
In short: as §1

[6] = tested on: ryegrass, Italian (Italian ryegrass, Lolium multiflorum); assay: Test A postemergence; settings: Lolium multiflorum, post-emergence, 240 h
In short: as §1

[7] = tested on: barnyardgrass (Echinochloa crus-galli); assay: Test A postemergence; settings: Echinochloa crus-galli, post-emergence, 240 h
In short: as §1

[8] = tested on: ragweed (common ragweed, Ambrosia elatior); assay: Test A postemergence; settings: Ambrosia artemisiifolia, post-emergence, 240 h
In short: as §1

[9] = tested on: giant foxtail (Setaria faberii); assay: Test A postemergence; settings: Setaria faberi, post-emergence, 240 h
In short: as §1

[10] = tested on: blackgrass (Alopecurus myosuroides); assay: Test A postemergence; settings: Alopecurus myosuroides, post-emergence, 240 h
In short: as §1

[11] = tested on: pigweed (Amaranthus retroflexus); assay: Test A preemergence; settings: Amaranthus retroflexus, pre-emergence, 240 h, 0 to 100 scale where 0 is no effect and 100 is complete control, read-out: Pigweed plant response rating
[12] = tested on: Kochia (Kochia scoparia); assay: Test A preemergence; settings: Bassia scoparia, pre-emergence, 240 h, 0 to 100 scale where 0 is no effect and 100 is complete control, read-out: Kochia plant response rating
In short: as §1

[13] = tested on: ryegrass, Italian (Italian ryegrass, Lolium multiflorum); assay: Test A preemergence; settings: Lolium multiflorum, pre-emergence, 240 h, 0 to 100 scale where 0 is no effect and 100 is complete control, read-out: Ryegrass, Italian plant response rating
In short: as §1

[14] = tested on: barnyardgrass (Echinochloa crus-galli); assay: Test A preemergence; settings: Echinochloa crus-galli, pre-emergence, 240 h, 0 to 100 scale where 0 is no effect and 100 is complete control, read-out: Barnyardgrass plant response rating
In short: as §1

[15] = tested on: ragweed (common ragweed, Ambrosia elatior); assay: Test A preemergence; settings: Ambrosia artemisiifolia, pre-emergence, 240 h, 0 to 100 scale where 0 is no effect and 100 is complete control, read-out: Ragweed plant response rating
In short: as §1

[16] = tested on: giant foxtail (Setaria faberii); assay: Test A preemergence; settings: Setaria faberi, pre-emergence, 240 h, 0 to 100 scale where 0 is no effect and 100 is complete control, read-out: Foxtail, Giant plant response rating
In short: as §1

[17] = tested on: sedge, umbrella (small-flower umbrella sedge, Cyperus difformis); assay: Test B flooded paddy test; settings: Cyperus difformis, 250 g ai/ha, Flood; 0 to 100 scale where 0 is no effect and 100 is complete control; read-out: Sedge, Umbrella plant response rating
In short: (§2)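 Rating scale 0–100 (visual, vs untreated controls) after a 13–15 d greenhouse period; application to the flood layer, 3 cm above soil and maintained; plants at 2-leaf stage when treated.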

[18] = tested on: ducksalad (Heteranthera limosa); assay: Test B flooded paddy test; settings: Heteranthera limosa, 250 g ai/ha, Flood; 0 to 100 scale where 0 is no effect and 100 is complete control; read-out: Ducksalad plant response rating
In short: as §2

[19] = tested on: rice (Oryra sativa); assay: Test B flooded paddy test; settings: Oryza sativa, 250 g ai/ha, Flood; 0 to 100 scale where 0 is no effect and 100 is complete control; read-out: Rice plant response rating
In short: as §2

[20] = tested on: barnyardgrass (Echinochloa crus-galli); assay: Test B flooded paddy test; settings: Echinochloa crus-galli, 250 g ai/ha, Flood; 0 to 100 scale where 0 is no effect and 100 is complete control; read-out: Barnyardgrass plant response rating
In short: as §2

[21] = 125 g ai/ha, preemergence, approx. 10 d

Q: What does the source list for `Cc1ccc([C@H]2CN(C)C(=O)[C@@H]2C(=O)Nc2cc(F)c(F)c(F)c2F)cc1` [Compound 1071]?
A: plant injury at 125 g/ha ([1]; 125 g ai/ha, postemergence, visual injury on 0 to 100 scale (0 no effect, 100 complete control), approx. 10 d, read-out: Corn plant response rating): 0%; Corn plant response rating (crop injury, 0 = no effect, 100 = complete kill) at 31 g/ha ([1]; Postemergence, 31 g ai/ha, visual injury after approx. 10 d, 0 to 100 scale, 0 no effect, 100 complete control): 0%; plant injury at 125 g/ha ([2]; 125 g ai/ha, postemergence, visual injury on 0 to 100 scale (0 no effect, 100 complete control), approx. 10 d, read-out: Wheat plant response rating): 0%; plant injury at 31 g/ha ([2]; Postemergence, 31 g ai/ha, visual injury after approx. 10 d, 0 to 100 scale, 0 no effect, 100 complete control, read-out: Plant response rating, Wheat): 0%; pest or weed control at 125 g/ha ([3]; 125 g ai/ha, postemergence, visual injury on 0 to 100 scale (0 no effect, 100 complete control), approx. 10 d, read-out: Pigweed plant response rating): 0%; pest or weed control at 31 g/ha ([3]; Postemergence, 31 g ai/ha, visual injury after approx. 10 d, 0 to 100 scale, 0 no effect, 100 complete control, read-out: Plant response rating, Pigweed): 0%; pest or weed control at 125 g/ha ([4]; 125 g ai/ha, postemergence, visual injury on 0 to 100 scale (0 no effect, 100 complete control), approx. 10 d, read-out: Kochia plant response rating): 0%; pest or weed control at 31 g/ha ([4]; Postemergence, 31 g ai/ha, visual injury after approx. 10 d, 0 to 100 scale, 0 no effect, 100 complete control, read-out: Plant response rating, Kochia): 0%; pest or weed control at 125 g/ha ([5]; 125 g ai/ha, postemergence, visual injury on 0 to 100 scale (0 no effect, 100 complete control), approx. 10 d, read-out: Galium plant response rating): 0%; pest or weed control at 31 g/ha ([5]; Postemergence, 31 g ai/ha, visual injury after approx. 10 d, 0 to 100 scale, 0 no effect, 100 complete control, read-out: Plant response rating, Galium): 0%; pest or weed control at 125 g/ha ([6]; 125 g ai/ha, postemergence, visual injury on 0 to 100 scale (0 no effect, 100 complete control), approx. 10 d, read-out: Ryegrass, Italian plant response rating): 0%; pest or weed control at 31 g/ha ([6]; Postemergence, 31 g ai/ha, visual injury after approx. 10 d, 0 to 100 scale, 0 no effect, 100 complete control, read-out: Plant response rating, Ryegrass, Italian): 0%; pest or weed control at 125 g/ha ([7]; 125 g ai/ha, postemergence, visual injury on 0 to 100 scale (0 no effect, 100 complete control), approx. 10 d, read-out: Barnyardgrass plant response rating): 90%; pest or weed control at 31 g/ha ([7]; Postemergence, 31 g ai/ha, visual injury after approx. 10 d, 0 to 100 scale, 0 no effect, 100 complete control, read-out: Plant response rating, Barnyardgrass): 30%; pest or weed control at 125 g/ha ([8]; 125 g ai/ha, postemergence, visual injury on 0 to 100 scale (0 no effect, 100 complete control), approx. 10 d, read-out: Ragweed plant response rating): 0%; pest or weed control at 31 g/ha ([8]; Postemergence, 31 g ai/ha, visual injury after approx. 10 d, 0 to 100 scale, 0 no effect, 100 complete control, read-out: Plant response rating, Ragweed): 0%; pest or weed control at 125 g/ha ([9]; 125 g ai/ha, postemergence, visual injury on 0 to 100 scale (0 no effect, 100 complete control), approx. 10 d, read-out: Foxtail, Giant plant response rating): 80%; pest or weed control at 31 g/ha ([9]; Postemergence, 31 g ai/ha, visual injury after approx. 10 d, 0 to 100 scale, 0 no effect, 100 complete control, read-out: Plant response rating, Foxtail, Giant): 20%; pest or weed control at 125 g/ha ([10]; 125 g ai/ha, postemergence, visual injury on 0 to 100 scale (0 no effect, 100 complete control), approx. 10 d, read-out: Blackgrass plant response rating): 0%; pest or weed control at 31 g/ha ([10]; Postemergence, 31 g ai/ha, visual injury after approx. 10 d, 0 to 100 scale, 0 no effect, 100 complete control, read-out: Plant response rating, Blackgrass): 0%; pest or weed control at 31 g/ha ([11]; 31 g ai/ha, Preemergence): 0%; pest or weed control at 125 g/ha [11, 21]: 0%; pest or weed control at 31 g/ha ([12]; 31 g ai/ha, Preemergence): 0%; pest or weed control at 125 g/ha [12, 21]: 0%; pest or weed control at 31 g/ha ([13]; 31 g ai/ha, Preemergence): 0%; pest or weed control at 125 g/ha [13, 21]: 0%; pest or weed control at 31 g/ha ([14]; 31 g ai/ha, Preemergence): 40%; pest or weed control at 125 g/ha [14, 21]: 90%; pest or weed control at 31 g/ha ([15]; 31 g ai/ha, Preemergence): 0%; pest or weed control at 125 g/ha [15, 21]: 0%; pest or weed control at 31 g/ha ([16]; 31 g ai/ha, Preemergence): 90%; pest or weed control at 125 g/ha [16, 21]: 100%; pest or weed control at 250 g/ha [17]: 0%; pest or weed control at 250 g/ha [18]: 98%; pest or weed control at 250 g/ha [19]: 0%; pest or weed control at 250 g/ha [20]: 40%
